Experimental data: patent US20240116994A1, “Peptides And Use Thereof For Diagnosing And Treating Antiphospholipid Syndrome” (UNIVERSITE DE GENEVE, priority 2021, published 2024)
Each block holds one molecule with its values, some of them ahead of it. Where no end group is shown, it is not given here. The star is where a group is joined. Biotin = O=C1N[C@H]2[C@H](CS[C@H]2CCCCC(=O)*)N1

Columns and labels:
[1] = test system: aPL (pool from APS patients); assay: Determination of aPL by ELISA on coated peptides / biotinylated peptides (custom immunoassay); format: binding, Human; details: for increase fold mean of aPL interaction relative to β2GP1: ELISA, 1/10 dilution of aPL pool, reference reduced β2GP1 (FIG. 1A)
Experimental: Determination of aPL by ELISA—MaxiSorp™ 96 well plates (Nunc) or Streptavidin plate (Thermofisher) were coated with 10 μg/ml recombinant domains of β2GP1, peptides or biotinylated-peptide prior to incubation with aPLA. Secondary anti-human antibodies conjugated to IR800CW (Rockland) or HRP were used. Protein- or peptide-bound antibodies were detected and quantified by the Odyssey system (Li-Cor Biosciences) or absorbance in optical densities (OD) was determined at 405 nm (molecular Devices™ Filtermax).
(§1) The de Groot's research group has pointed at the importance of hydrophobic character of the plate during coating of R39-R43 epitope. In order to abrogate of the plate-dependent aPL binding, the Ia-1 and Ib-1 peptides as well as the R39-R43 with a biotin at their N-terminal were synthetized and coated a streptavidin plate. In this configuration, the different peptides are flag oriented in the space preventing any interaction with the plate. It was thus observed that the flag-type orientation of R39-R43-biot leads to 8.52×more interaction with aPL while they show 9.63×more binding for Ib-1-biot presenting the same position. […] The surface plasmon resonance (SPR) technique is used to determine the relative avidity of aPL for R39-R43-biot and Ib-1-biot. The interaction between aPL and immobilized R39-R43-biot or Ib-1-biot is monitored by flowing various concentrations of aPL over a R39-R43-biot- or Ib-1-biot-coated chip surface (FIG. 1C). Through SPR experiments, it appears that aPL avidity for Ib-1-biot presents a resonance unit (RU) of 51.49 at 1/1,000 of dilution and a RU of 27.61 at 1/10,000 of dilution while, at the same dilution, it present a RU of 27.36 and a RU of 17.99 with R39-R43-biot, respectively (FIG. 1C). However, at higher concentrations, the peptides seems to show no differences in the interactions with aPL. […] Considering that IgG valency, it was decided to generate a dimeric Ib-1-biot peptide (Ib-1-biot-2x). This new polypeptide carries thus two optimized epitopes which have the opportunity to interact with two Fab fragment present on aPL. […] At higher concentration, i.e dilution of 1/100, the avidity for dimeric peptide is 28×more than for the monomeric (FIG. 1D).
It was performed a peptide substitution scan of Ib-1-biot VSRGGMRKKKKPLTG (SEQ ID NO: 6) carrying the optimized epitope Ib-1-biot and based on an exchange of the underlined amino acid positions with the 20 main amino acids. The resulting peptide microarrays contained 140 different peptides. It was observed that the peptide substitution of the position n° 1, 2, 12 and 15 have significant influences on the ability to interact with aPL from patients 1, 2, 3, 4 and, in particular, form the plasma pool. Indeed, the substitution of the position 1, 12 or 15 by an Arginine (R) or a Lysine (K) increases the avidity of the peptide for all aPL from patients. […] In this context, the enhancement relative to Ib-1.0-biot-2x of identified peptides was evaluated (FIG. 2A). […] However, streptavidin being known to produce unspecific binding, it was used the ratio between aPL and a pool of human plasma as control (B/B0) (FIG. 2B, upper panel). This representation therefore allows to distinguish the real levels of interactions. It was then performed a dilution assay from dilution of 1/100 to 1/1,200,000 and it was observed relevant differences between the different identified peptides. By comparison of area under the curve (AUC), it was possible to detect the most prone-interacting peptide with aPL. Thus, the peptide IIa-8.0-biot-2x obtained the higher AUC (FIG. 2B, bottom panel). To formally quantify the ability of aPL to interact with IIa-8.0-biot-2x, it was monitored by flowing various concentrations of aPL over a IIa-8.0-biot-2x-coated chip surface (FIG. 2C). […] In FIG. 2C, bottom panel, it can be appreciated more precisely the improvement of the quality of interactions. […]

[2] = test system: aPL from a pool of 13 Human patients; assay: Surface plasmon resonance, aPL flown over biotin-peptide-coated SA chip (BIAcore X100); format: binding; details: for sustained interaction / stability of binding with aPL (shape of SPR curves): stabilization curves
Experimental: The kinetics and affinity of protein-protein and protein-lipid interactions were determined using a BIAcore X100 instrument. 1 mg/ml of biotin-tagged peptide (ligand) was immobilized using a sensor chip SA (GE Healthcare) surface, whereas aPL from a pool of 13 Human patients were flown as analyte. The first flow cell of the sensor chip was used as a control surface (no protein), whereas the second flow cell was employed as the active surface. A range of dilution of aPL analytes prepared in the same buffer was injected on both flow cell surfaces at a flow rate of 30 μl/min. Association and dissociation times for each protein injection were set at 90 and 120 s, respectively. In all cases, sensorgrams were obtained from three different dilutions of aPL.
as §1
It was performed a peptide substitution scan of Ib-1-biot VSRGGMRKKKKPLTG (SEQ ID NO: 6) carrying the optimized epitope Ib-1-biot and based on an exchange of the underlined amino acid positions with the 20 main amino acids. The resulting peptide microarrays contained 140 different peptides. It was observed that the peptide substitution of the position n° 1, 2, 12 and 15 have significant influences on the ability to interact with aPL from patients 1, 2, 3, 4 and, in particular, form the plasma pool. Indeed, the substitution of the position 1, 12 or 15 by an Arginine (R) or a Lysine (K) increases the avidity of the peptide for all aPL from patients. […] In this context, the enhancement relative to Ib-1.0-biot-2x of identified peptides was evaluated (FIG. 2A). […] However, streptavidin being known to produce unspecific binding, it was used the ratio between aPL and a pool of human plasma as control (B/B0) (FIG. 2B, upper panel). This representation therefore allows to distinguish the real levels of interactions. It was then performed a dilution assay from dilution of 1/100 to 1/1,200,000 and it was observed relevant differences between the different identified peptides. By comparison of area under the curve (AUC), it was possible to detect the most prone-interacting peptide with aPL. Thus, the peptide IIa-8.0-biot-2x obtained the higher AUC (FIG. 2B, bottom panel). […]

[3] = test system: binding of aPL to IIa-8.0-biot-2x; assay: Inhibition experiments: remaining reactivity of pre-treated aPL on IIa-8.0-biot-2x ELISA; set-up: species or system Human; details: aPL pool sera preincubated 90 min at RT with 1, 10 and 10011 g/ml peptide
Experimental: To examine the functional ability of IIa-5.0, IIa-7.1, IIa-8.0 peptides and R39-R43 to inhibit the activity of pool of aPL isolated from APS patients, the remaining reactivity of aPL was evaluated for IIa-8.0-biot-2x which had previously been treated with increasing concentration of peptides. […] The flag-type orientation prevents potential interactions with the plate or with itself, particularly in solution. Streptavidin magnetic beads associated with IIa-5.0-biot-2x, IIa-7.1-biot-2x and Ha-8.0-biot-2x peptides have been generated. aPL was treated with increasing concentrations of beads before to measure the remaining binding activity of aPL on IIa-8.0-biot-2x ELISA (FIG. 7C).
To assess the ability of IIa-5.0-2x, IIa-7.1-2x and IIa-8.0-2x to inhibit in vitro the binding of aPL to IIa-8.0-biot-2x. aPL pool sera were preincubated for 90 min at RT with increasing concentrations (1, 10 and 10011 g/ml) of monomeric, dimeric IIa-5.0, IIa-7.1 and IIa-8.0 peptides and of IIa-5.0-biot-2x, IIa-7.1-biot-2x and IIa-8.0-biot-2x-associated beads (15, 30 and 60 pmol). 120 pmol correspond to the amount of IIa-8.0-biot-2x coated in well of Streptavidin Coated High Capacity Plates 96 well plates (Thermofisher). After the pre-incubation time, the serum was added anti-b2GP1 IgG (anti-IIa-8.0-2x) ELISA according to the protocol.

[4] = after a dilution of 100× of aPL (1/1,000) (FIG. 1B)
[5] = streptavidin plate, N-terminal biotin, 1/10 dilution of aPL pool (FIG. 1B)
[6] = aPL at 1/1,000 of dilution (FIG. 1C)
[7] = aPL at 1/10,000 of dilution (FIG. 1C)

Molecule: Ib-1-biot: monomeric Ib-1 peptide with a biotin at its N-terminal (Biotin-VSRGGMRKKKKPLTG)
- interaction with aPL of flag-oriented biotinylated peptide versus nude peptide [1, 4]: 4.3 ×
- interaction with aPL of flag-oriented biotinylated peptide versus nude peptide [1, 5]: 9.63 ×
- resonance unit (RU), aPL avidity [2, 6]: 51.49 RU
- resonance unit (RU), aPL avidity [2, 7]: 27.61 RU
- sustained interaction / stability of binding with aPL (shape of SPR curves) [2]: neither R39-R43-biot nor Ib-1-biot have sustained interaction with aPL

Molecule: VSRGGMRKRKKKKTG [IIa-7.1]
- inhibition of aPL binding to IIa-8.0-biot-2x ELISA by peptide in solution [3]: prevents their further binding to IIa-8.0-biot-2x ELISA

Molecule: VSRGGMRKFIKPLTG [Ia-1, corresponding to the first substitution scan]
- increase fold mean of aPL interaction relative to β2GP1 [1]: 3.47 fold

Molecule: R39-R43-biot: R39-R43 peptide with a biotin at its N-terminal (Biotin-VSRGGMRKFICPLTG) [reference compound]
- interaction with aPL of flag-oriented biotinylated peptide versus nude peptide [1, 4]: 2.83 ×
- interaction with aPL of flag-oriented biotinylated peptide versus nude peptide [1, 5]: 8.52 ×
- resonance unit (RU), aPL avidity [2, 6]: 27.36 RU
- resonance unit (RU), aPL avidity [2, 7]: 17.99 RU
- sustained interaction / stability of binding with aPL (shape of SPR curves) [2]: neither R39-R43-biot nor Ib-1-biot have sustained interaction with aPL

Molecule: VSRGGMRKKKKPLTG [Ib-1, corresponding to the second substitution scan]
- increase fold mean of aPL interaction relative to β2GP1 [1]: 5.5 fold

Molecule: RSRGGMRKRKKPLTG [IIa-8.0]
- inhibition of aPL binding to IIa-8.0-biot-2x ELISA by peptide in solution [3]: prevents their further binding to IIa-8.0-biot-2x ELISA

Molecule: VSRGGMRKRKKPLTK [IIa-5.0]
- inhibition of aPL binding to IIa-8.0-biot-2x ELISA by peptide in solution [3]: prevents their further binding to IIa-8.0-biot-2x ELISA

- inhibition of aPL binding to IIa-8.0-biot-2x ELISA by peptide in solution [3]: failed to significantly inhibit
Molecule: VSRGGMRKFICPLTG [R39-R43, reference compound]
- increase fold mean of aPL interaction relative to β2GP1 [1]: same ability to interact with aPL than β2GP1

B1: Dom MI: recombinant Domain I-II of β2GP1 (protein)
chain: GRTCPKPDDLPFSTVVPLKTFYEPGEEITYSCKPGYVSRGGMRKFICPLTGLWPINTLKCTPRVCPFAGILENGAVRYTTFEYPNTISFSCNTGFYLNGADSAKCTEEGKWSPELPVCAP
- increase fold mean of aPL interaction relative to β2GP1 [1]: same ability to interact with aPL than β2GP1
